Source: patent US9034877B2 (Wayne State University, priority 2009, dated 2015)
Entries after “also recorded” stand apart in the source; their conditions may differ.

Columns and labels:
[1] = background statement; cited from earlier work
[2] = target: T1, hD3 receptor (Homo sapiens, UniProt P35462); experiment: Stimulation of [35S]GTPγS binding, hD3 receptor expressed in CHO cells; type: biochemical
T1 construct: expressed in transfected cells; host or cells: CHO

[3] = system: reserpinized rats; experiment: Reversal of reserpine-induced hypolocomotion in rats; type: in vivo, rat; settings: 10 μMol/kg; for Reversal of reserpine-induced hypolocomotion (horizontal locomotor activity): (−)19b i.p., ropinirole s.c., 18 h after reserpine 5 mg/kg s.c., 6 h
Text: Administration of reserpine induces catalepsy in rodents primarily by blocking the vesicular monoamine trasporter (VMAT) which helps in the internalization of monoamines into vesicles, resulting in metabolism of unprotected monoamines in the cytosol that ultimately causes depletion of monoamines in the synapse of the peripheral sympathetic nerve terminals. The ability of the compound (-)-19b to reverse the reserpine induced hypolocomotion was investigated. Ropinirole was used as standard reference compound in this study. Reserpine (5.0 mg/kg, s.c.) or saline (s.c.) were administered 18 h before the injection of drug or vehicle (i.p.). The rats were placed individually in chambers for 1 h for acclimatization purpose before the administration of the test drug, standard drug or vehicle. Immediately after administration of drug or vehicle, animals were individually placed in […] animal activity monitor chamber (45×30×20 cm) (AccuScan Instruments, Inc. Columbus, Ohio) to start measuring locomotor activity. Locomotion was monitored for 6 h. Consecutive interruption of two infrared beams situated 24 cm apart and 4 cm above the cage floor in the monitor chamber recorded movement. The data were presented as horizontal counts (HACTV). The effect of the individual doses of drugs on locomotor activity was compared with respect to saline treated controls (mean±S.E.M.). The data were analyzed by one way analysis of variance (ANOVA) followed by Dunnett's post-hoc test.

[4] = system: 6-OHDA lesioned rats; experiment: Rotational experiment with 6-OHDA unilaterally lesioned rats; type: in vivo, rat
[5] = target: T2, D3 receptor (Rattus norvegicus, UniProt P19020); experiment: Inhibition of [3H]spiperone binding to cloned D3 receptors expressed in HEK-293 cells; settings: [3H]spiperone, rat D3 in HEK-293 cells
T2 construct: expressed in transfected cells
T2 sequence (P19020 whole entry): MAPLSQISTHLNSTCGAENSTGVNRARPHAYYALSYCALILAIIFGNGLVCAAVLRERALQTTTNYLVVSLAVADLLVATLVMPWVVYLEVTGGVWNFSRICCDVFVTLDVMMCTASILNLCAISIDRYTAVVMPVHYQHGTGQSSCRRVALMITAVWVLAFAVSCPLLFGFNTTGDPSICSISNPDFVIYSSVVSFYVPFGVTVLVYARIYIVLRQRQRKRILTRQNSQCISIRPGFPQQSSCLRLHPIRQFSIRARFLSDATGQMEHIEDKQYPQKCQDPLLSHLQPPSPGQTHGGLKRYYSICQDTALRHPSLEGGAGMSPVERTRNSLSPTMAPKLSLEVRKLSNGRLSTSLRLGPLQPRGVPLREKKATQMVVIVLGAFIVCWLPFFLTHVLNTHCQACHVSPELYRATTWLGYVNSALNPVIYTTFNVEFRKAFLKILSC

[6] = target: T3, D2L receptor (Rattus norvegicus, UniProt P61169); experiment: Inhibition of [3H]spiperone binding to cloned D2L receptors expressed in HEK-293 cells; settings: rat D2L in HEK-293 cells, read-out: Ki, D2 receptor
T3 construct: expressed in transfected cells
T3 sequence (P61169 whole entry): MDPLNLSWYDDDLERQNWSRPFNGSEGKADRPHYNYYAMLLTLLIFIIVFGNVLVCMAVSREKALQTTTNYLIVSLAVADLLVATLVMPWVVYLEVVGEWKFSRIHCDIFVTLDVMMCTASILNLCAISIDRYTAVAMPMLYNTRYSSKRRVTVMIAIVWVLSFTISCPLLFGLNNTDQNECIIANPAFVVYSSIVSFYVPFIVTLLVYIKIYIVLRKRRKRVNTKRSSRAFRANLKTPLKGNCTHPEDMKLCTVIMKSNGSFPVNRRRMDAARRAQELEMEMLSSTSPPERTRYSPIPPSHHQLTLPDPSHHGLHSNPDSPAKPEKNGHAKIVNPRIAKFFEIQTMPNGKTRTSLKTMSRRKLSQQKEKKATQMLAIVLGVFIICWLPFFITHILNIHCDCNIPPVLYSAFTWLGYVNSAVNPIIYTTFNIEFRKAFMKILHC

T1 sequence (P35462 whole entry): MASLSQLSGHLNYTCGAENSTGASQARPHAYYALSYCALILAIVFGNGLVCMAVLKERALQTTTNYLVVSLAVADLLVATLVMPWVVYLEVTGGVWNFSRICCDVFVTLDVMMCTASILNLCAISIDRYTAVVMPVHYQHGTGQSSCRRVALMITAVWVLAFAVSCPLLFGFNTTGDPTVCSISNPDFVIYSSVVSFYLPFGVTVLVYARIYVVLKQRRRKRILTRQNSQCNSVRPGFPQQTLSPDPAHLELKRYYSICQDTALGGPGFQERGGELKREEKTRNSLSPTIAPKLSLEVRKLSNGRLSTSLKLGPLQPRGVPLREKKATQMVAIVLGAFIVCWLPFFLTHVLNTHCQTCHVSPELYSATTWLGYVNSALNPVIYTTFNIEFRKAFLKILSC

| SMILES | Agonism at D3 compared with dopamine [2] | Ki [5] | Ki [6] | other results |
| --- | --- | --- | --- | --- |
| C#CCNCc1ccc(O)c2ncccc12 [Compound M30, 5-((prop-2-ynylamino)methyl)quinolin-8-ol] | – | – | – | Activity in animal experiments [1]: antioxidant and neuroprotective |
| CCCN(CCN1CCN(c2ccnc3c(O)cccc23)CC1)C1CCc2ccc(O)cc2C1 (single isomer, unassigned; (+)) [(+)19a, (+)-4-(4-(2-((7-hydroxy-1,2,3,4-tetrahydronaphthalen-2-yl) (propyl)amino)ethyl)piperazin-1-yl)quinolin-8-ol] | full or near-complete agonism | – | – | – |
| CCCN(CCN1CCN(c2ccnc3c(O)cccc23)CC1)C1CCc2c(O)cccc2C1 (single isomer, unassigned; (-)) [Compound (−)19b, (−)-4-(4-(2-((5-hydroxy-1,2,3,4-tetrahydronaphthalen-2-yl) (propyl)amino)ethyl)piperazin-1-yl)quinolin-8-ol] | full or near-complete agonism | – | – | Reversal of reserpine-induced hypolocomotion (horizontal locomotor activity) [3]: highly efficacious; also recorded: significantly different; Rotational activity at the higher dose ([4]; 1 μMol/kg (0.61 mg/kg), 11 h): remained high at the termination of the experiments |
| CCCN(CCN1CCN(C(=O)c2ccc3[nH]ccc3c2)CC1)[C@H]1CCc2c(O)cccc2C1 [Compound (−)-45, (S)-(4-{2-[(5-Hydroxy-1,2,3,4-tetrahydro-naphthalen-2-yl)-propyl-amino]-ethyl}-piperazin-1-yl)-(1H-indol-5-yl)-methanone] | – | 2.27 nM | 157 nM | – |
| OCCN1CCN(Cc2ccc(O)c3ncccc23)CC1 [VK 28, 5-((4-(2-hydroxyethyl)piperazin-1-yl)methyl)quinolin-8-ol] | – | – | – | Activity in animal experiments [1]: antioxidant and neuroprotective |
| CN1CCc2cccc3c2[C@H]1Cc1ccc(O)c(O)c1-3 [apomorphine] | – | – | – | Average contralateral rotation ([4]; 0.05 mg/kg, 21 days post lesion, recorded for 30 min): > 250 |
| CCCN(CCC)CCc1cccc2c1CC(=O)N2 [ropinirole, reference compound] | full or near-complete agonism | – | – | Reversal of reserpine-induced hypolocomotion (horizontal locomotor activity) [3]: significantly different; Duration of action in reserpinized rats ([3]; compared with (−)19b): much shorter duration of action; Rotations and duration of action ([4]; 5 μMol/kg): much less rotations with shorter duration of action; Effect on rotations compared to vehicle (Dunnett) ([4]; (−)19b two doses i.p., ropinirole): significant |

More lines, main results first:

| Agonism at D3 compared with dopamine [2] | Ki [5] | Ki [6] | SMILES | other results |
| --- | --- | --- | --- | --- |
| – | 2.83 nM | 28 nM | CCCN(CCN1CCN(C(=O)c2n[nH]c3ccccc23)CC1)C1CCc2c(O)cccc2C1 (stereo not drawn) [Compound 40g, (4-{2-[(5-Hydroxy-1,2,3,4-tetrahydro-naphthalen-2-yl)-propyl-amino]-ethyl}-piperazin-1-yl)-(1H-indazol-3-yl)-methanone] | – |
| – | 1.69 nM | 76.9 nM | CCCN(CCN1CCN(C(=O)c2cc3ccccc3s2)CC1)C1CCc2c(O)cccc2C1 (stereo not drawn) [Compound 40i, Benzo[b]thiophen-2-yl-(4-{2-[(5-hydroxy-1,2,3,4-tetrahydro-naphthalen-2-yl)-propyl-amino]-ethyl}-piperazin-1-yl)-methanone] | – |
